Source: patent publication US9833497B2, “Human originated EGF domain proteins and use of the same” (CHENGDU SOURCEBIO LIMITED-LIABILITY COMPANY, priority 2013, dated 2017)

Columns and labels:
Assay type in all cases: cell-based
Serratia marcescens = test: MIC against Gram-negative bacteria: Serratia marcescens
Procedure, shortened: (§1)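 First, colonies from LB agar were grown in LB at 37° C, 185 rpm, to McFarland turbidity 0.5, then centrifuged and resuspended in fresh LB. Next, wells received 5×10^5 CFU/mL bacteria plus two-fold serially diluted EGF domain protein (triplicate). Finally, plates were shaken at 37° C and the no-growth concentration taken as MIC.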

Pseudomonas aeruginosa = test: MIC against Gram-negative bacteria: Pseudomonas aeruginosa
Procedure, shortened: as §1

Aeromonas hydrophila = test: MIC against Gram-negative bacteria: Aeromonas hydrophila
Procedure, shortened: as §1

Proteus mirabilis = test: MIC against Gram-negative bacteria: Proteus mirabilis
Procedure, shortened: as §1

Enterobacter cloacae = test: MIC against Gram-negative bacteria: Enterobacter cloacae
Procedure, shortened: as §1

Moraxella catarrhalis = test: MIC against Gram-negative bacteria: Moraxella catarrhalis
Procedure, shortened: as §1

E. coli BL21 = test: MIC against Gram-negative bacteria: E. coli BL21
Procedure, shortened: as §1

E. coli DH5α = test: Antibacterial activity: MIC and growth curve against E. coli DH5α in 96-well plate; conditions: minimal inhibitory concentration against E. coli DH5α; 96-well plate, 5×10^5 CFU/mL, 37° C., judged after 8 h
Procedure, shortened: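 Log-phase DH5α (OD600 about 0.5, 37° C, 185 rpm in LB) was pelleted, resuspended in fresh LB and seeded at 5×10^5 CFU/mL with recombinant protein at 50, 25 and 12.5 μg/mL (two-fold series), in triplicate. Plates were shaken at 175 rpm, 37° C, and OD600 was read every 30 min. MIC was the lowest concentration with no growth.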

Proteus vulgaris = test: MIC against Gram-negative bacteria: Proteus vulgaris
Procedure, shortened: as §1

Citrobacter diversus = test: MIC against Gram-negative bacteria: Citrobacter diversus
Procedure, shortened: as §1

Klebsiella pneumonia = test: MIC against Gram-negative bacteria: Klebsiella pneumonia
Procedure, shortened: as §1

[1] = S. marcescens, 10 h cultivation at 37° C., 5×10^5 CFU/mL
[2] = P. aeruginosa, 10 h cultivation at 37° C., 5×10^5 CFU/mL
[3] = A. hydrophila, 10 h cultivation at 37° C., 5×10^5 CFU/mL
[4] = P. mirabilis, 10 h cultivation at 37° C., 5×10^5 CFU/mL
[5] = E. cloacae, 10 h cultivation at 37° C., 5×10^5 CFU/mL
[6] = M. catarrhalis, 10 h cultivation at 37° C., 5×10^5 CFU/mL
[7] = E. coli BL21, 10 h cultivation at 37° C., 5×10^5 CFU/mL
[8] = P. vulgaris, 10 h cultivation at 37° C., 5×10^5 CFU/mL
[9] = C. diversus, 10 h cultivation at 37° C., 5×10^5 CFU/mL
[10] = K. pneumonia, 10 h cultivation at 37° C., 5×10^5 CFU/mL
[11] = Serratia marcescens, 96-well plate, 5×10^5 CFU/mL, 37° C., 10 h
[12] = Pseudomonas aeruginosa, 96-well plate, 5×10^5 CFU/mL, 37° C., 10 h
[13] = Aeromonas hydrophila, 96-well plate, 5×10^5 CFU/mL, 37° C., 10 h
[14] = Proteus mirabilis, 96-well plate, 5×10^5 CFU/mL, 37° C., 10 h
[15] = Enterobacter cloacae, 96-well plate, 5×10^5 CFU/mL, 37° C., 10 h
[16] = Moraxella catarrhalis, 96-well plate, 5×10^5 CFU/mL, 37° C., 10 h
[17] = E. coli BL21, 96-well plate, 5×10^5 CFU/mL, 37° C., 10 h
[18] = Proteus vulgaris, 96-well plate, 5×10^5 CFU/mL, 37° C., 10 h
[19] = Citrobacter diversus, 96-well plate, 5×10^5 CFU/mL, 37° C., 10 h
[20] = Klebsiella pneumonia, 96-well plate, 5×10^5 CFU/mL, 37° C., 10 h
[21] = 96-well plate, 5×10^5 CFU/mL, 37° C., 10 h

PRT942 (LVNLCSRSPCKNKGTCVQKKAESQCLCPSGWAGAYCD; listed as Homo sapiens)
50 µg/mL: MIC (Serratia marcescens; S. marcescens, 10 h cultivation at 37° C.) | MIC (Proteus mirabilis; P. mirabilis, 10 h cultivation at 37° C.) | MIC (E. coli BL21; E. coli BL21, 10 h cultivation at 37° C.) | MIC (Citrobacter diversus; C. diversus, 10 h cultivation at 37° C.) | MIC (Klebsiella pneumonia; K. pneumonia, 10 h cultivation at 37° C.)
12.5 µg/mL: MIC (Pseudomonas aeruginosa; P. aeruginosa, 10 h cultivation at 37° C.) | MIC (Enterobacter cloacae; E. cloacae, 10 h cultivation at 37° C.) | MIC (Moraxella catarrhalis; M. catarrhalis, 10 h cultivation at 37° C.) | MIC (Proteus vulgaris; P. vulgaris, 10 h cultivation at 37° C.)
25 µg/mL: MIC (Aeromonas hydrophila; A. hydrophila, 10 h cultivation at 37° C.) | MIC (E. coli DH5α)

PRT819 (YGHNCSQACACFNGASCDPVHGQCHCAPGWMGPSCL; listed as Homo sapiens)
50 µg/mL: MIC (μg/mL) M. catarrhalis (Moraxella catarrhalis; [6]) | MIC (μg/mL) P. vulgaris (Proteus vulgaris; [8])
12.5 µg/mL: MIC (μg/mL) P. aeruginosa (Pseudomonas aeruginosa; [2]) | MIC (μg/mL) A. hydrophila (Aeromonas hydrophila; [3]) | MIC (μg/mL) P. mirabilis (Proteus mirabilis; [4]) | MIC (E. coli DH5α) | MIC (μg/mL) K. pneumonia (Klebsiella pneumonia; [10])
25 µg/mL: MIC (μg/mL) S. marcescens (Serratia marcescens; [1]) | MIC (μg/mL) E. cloacae (Enterobacter cloacae; [5]) | MIC (μg/mL) E. coli BL21 (E. coli BL21; [7]) | MIC (μg/mL) C. diversus (Citrobacter diversus; [9])

PRT5 (DGDQCETSPCQNQGKCKDGLGEYTCTCLEGFEGKNCE; listed as Homo sapiens)
25 µg/mL: MIC (μg/mL) S. marcescens (Serratia marcescens; [11]) | MIC (μg/mL) P. aeruginosa (Pseudomonas aeruginosa; [12]) | MIC (μg/mL) E. cloacae (Enterobacter cloacae; [15]) | MIC (μg/mL) M. catarrhalis (Moraxella catarrhalis; [16]) | MIC (μg/mL) C. diversus (Citrobacter diversus; [19]) | MIC (μg/mL) K. pneumonia (Klebsiella pneumonia; [20])
12.5 µg/mL: MIC (μg/mL) A. hydrophila (Aeromonas hydrophila; [13]) | MIC (μg/mL) P. mirabilis (Proteus mirabilis; [14]) | MIC (μg/mL) E. coli BL21 (E. coli BL21; [17]) | MIC (E. coli DH5α) | MIC (μg/mL) P. vulgaris (Proteus vulgaris; [18])

PRT1270 (DVDECSLDRTCDHSCINHPGTFACACNRGYTLYGFTHCG; listed as Homo sapiens)
25 µg/mL: MIC against A. hydrophila (Aeromonas hydrophila; [13]) | MIC against M. catarrhalis (Moraxella catarrhalis; [16]) | MIC against P. vulgaris (Proteus vulgaris; [18])
50 µg/mL: MIC against P. aeruginosa (Pseudomonas aeruginosa; [12]) | MIC against P. mirabilis (Proteus mirabilis; [14]) | MIC against E. cloacae (Enterobacter cloacae; [15]) | MIC (E. coli DH5α)
12.5 µg/mL: MIC against S. marcescens (Serratia marcescens; [11]) | MIC against E. coli BL21 (E. coli BL21; [17]) | MIC against C. diversus (Citrobacter diversus; [19]) | MIC against K. pneumonia (Klebsiella pneumonia; [20])

PRT712 (GSNSCQLNNGGCSQLCLPTSETTRTCMCTVGYYLQKNRMSCQ; listed as Homo sapiens)
25 µg/mL: MIC A. hydrophila (Aeromonas hydrophila; [21]) | MIC M. catarrhalis (Moraxella catarrhalis; [21]) | MIC (E. coli DH5α) | MIC P. vulgaris (Proteus vulgaris; [21]) | MIC K. pneumonia (Klebsiella pneumonia; [21])
50 µg/mL: MIC P. aeruginosa (Pseudomonas aeruginosa; [21]) | MIC P. mirabilis (Proteus mirabilis; [21]) | MIC E. cloacae (Enterobacter cloacae; [21])
12.5 µg/mL: MIC S. marcescens (Serratia marcescens; [21]) | MIC E. coli BL21 (E. coli BL21; [21]) | MIC C. diversus (Citrobacter diversus; [21])

PRT219 (DIDECRTSSYLCQYQCVNEPGKFSCMCPQGYQVVRSRTCQ; listed as Homo sapiens)
25 µg/mL: MIC (μg/mL) E. coli BL21 (E. coli BL21; [7]) | MIC (μg/mL) P. vulgaris (Proteus vulgaris; [8])
50 µg/mL: MIC (μg/mL) P. aeruginosa (Pseudomonas aeruginosa; [2])
12.5 µg/mL: MIC (μg/mL) S. marcescens (Serratia marcescens; [1]) | MIC (μg/mL) A. hydrophila (Aeromonas hydrophila; [3]) | MIC (μg/mL) P. mirabilis (Proteus mirabilis; [4]) | MIC (μg/mL) E. cloacae (Enterobacter cloacae; [5]) | MIC (μg/mL) M. catarrhalis (Moraxella catarrhalis; [6]) | MIC (E. coli DH5α) | MIC (μg/mL) C. diversus (Citrobacter diversus; [9]) | MIC (μg/mL) K. pneumonia (Klebsiella pneumonia; [10])

PRT504 (CDCSGNVDPSEAGHCDSVTGECLKCLGNTDGAHCERCADGFYGDAVTAKNCRA; listed as Homo sapiens)
50 µg/mL: MIC against E. coli BL21 (E. coli BL21; [21]) | MIC against P. vulgaris (Proteus vulgaris; [21]) | MIC against C. diversus (Citrobacter diversus; [21]) | MIC against K. pneumonia (Klebsiella pneumonia; [21])
25 µg/mL: MIC against A. hydrophila (Aeromonas hydrophila; [21]) | MIC against M. catarrhalis (Moraxella catarrhalis; [21])
12.5 µg/mL: MIC against S. marcescens (Serratia marcescens; [21]) | MIC against P. aeruginosa (Pseudomonas aeruginosa; [21]) | MIC against P. mirabilis (Proteus mirabilis; [21]) | MIC against E. cloacae (Enterobacter cloacae; [21]) | MIC (E. coli DH5α)
